From PubChem BioAssay (NCI)
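Assay format: 96-well plates, 48-hour exposure. At the GI50, growth is halved. TGI marks complete inhibition of growth.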

Tests used:
Test in all cases: DTP human tumour cell line panel, 48 h
786-0 renal = test system: 786-0 renal
A498 renal = test system: A498 renal
A549 NSCLC = test system: A549 NSCLC
ACHN renal = test system: ACHN renal
BT-549 breast = test system: BT-549 breast
CAKI-1 renal = test system: CAKI-1 renal
CCRF-CEM leukemia = test system: CCRF-CEM leukemia
COLO 205 colon = test system: COLO 205 colon
DU-145 prostate = test system: DU-145 prostate
HCC-2998 colon = test system: HCC-2998 colon
HCT-116 colon = test system: HCT-116 colon
HCT-15 colon = test system: HCT-15 colon
HL-60(TB) leukemia = test system: HL-60(TB) leukemia
HOP-62 NSCLC = test system: HOP-62 NSCLC
HOP-92 NSCLC = test system: HOP-92 NSCLC
HS 578T breast = test system: HS 578T breast
HT29 colon = test system: HT29 colon
IGROV1 ovarian = test system: IGROV1 ovarian
K-562 leukemia = test system: K-562 leukemia
KM12 colon = test system: KM12 colon
LOX IMVI melanoma = test system: LOX IMVI melanoma
M14 melanoma = test system: M14 melanoma
MALME-3M melanoma = test system: MALME-3M melanoma
MCF7 breast = test system: MCF7 breast
MDA-MB-231 breast = test system: MDA-MB-231 breast
MDA-MB-435 = test system: MDA-MB-435
MOLT-4 leukemia = test system: MOLT-4 leukemia
NCI-H226 lung = test system: NCI-H226 lung
NCI-H23 lung = test system: NCI-H23 lung

COc1cccc(C2=C(c3cn(C)c4cccc(OC)c34)C(=O)NC2=O)c1
GI50 (786-0 renal): 17.9 µM | TGI (786-0 renal): > 25 µM | GI50 (A498 renal): 4.9 µM | TGI (A498 renal): > 25 µM | GI50 (A549 NSCLC): 11.2 µM | TGI (A549 NSCLC): > 25 µM | GI50 (ACHN renal): 15.5 µM | TGI (ACHN renal): > 25 µM | GI50 (BT-549 breast): 12.9 µM | TGI (BT-549 breast): > 25 µM | GI50 (CAKI-1 renal): 9.79 µM | TGI (CAKI-1 renal): > 25 µM | GI50 (CCRF-CEM leukemia): 10.4 µM | TGI (CCRF-CEM leukemia): > 25 µM | GI50 (COLO 205 colon): 6.48 µM | TGI (COLO 205 colon): > 20.3 µM | GI50 (DU-145 prostate): 10.7 µM | TGI (DU-145 prostate): > 25 µM | GI50 (HCC-2998 colon): > 25 µM | TGI (HCC-2998 colon): > 25 µM | GI50 (HCT-116 colon): 9.55 µM | TGI (HCT-116 colon): > 25 µM | GI50 (HCT-15 colon): 3.41 µM | TGI (HCT-15 colon): > 25 µM | GI50 (HL-60(TB) leukemia): 9.75 µM | TGI (HL-60(TB) leukemia): > 25 µM | GI50 (HOP-62 NSCLC): 18.8 µM | TGI (HOP-62 NSCLC): > 25 µM | GI50 (HOP-92 NSCLC): 8.89 µM | TGI (HOP-92 NSCLC): > 25 µM | GI50 (HS 578T breast): 8.93 µM | TGI (HS 578T breast): > 25 µM | GI50 (HT29 colon): 5.34 µM | TGI (HT29 colon): > 25 µM | GI50 (IGROV1 ovarian): 7.49 µM | TGI (IGROV1 ovarian): > 25 µM | GI50 (K-562 leukemia): 3.51 µM | TGI (K-562 leukemia): > 25 µM | GI50 (KM12 colon): 6.01 µM | TGI (KM12 colon): > 25 µM | GI50 (LOX IMVI melanoma): 17.1 µM | TGI (LOX IMVI melanoma): > 25 µM | GI50 (M14 melanoma): 7.98 µM | TGI (M14 melanoma): > 25 µM | GI50 (MALME-3M melanoma): > 16.6 µM | TGI (MALME-3M melanoma): > 25 µM | GI50 (MCF7 breast): 6.99 µM | TGI (MCF7 breast): > 25 µM | GI50 (MDA-MB-231 breast): 17.9 µM | TGI (MDA-MB-231 breast): > 25 µM | GI50 (MDA-MB-435): 0.832 µM | TGI (MDA-MB-435): > 9.17 µM | GI50 (MOLT-4 leukemia): 12.5 µM | TGI (MOLT-4 leukemia): > 25 µM | GI50 (NCI-H226 lung): > 25 µM | TGI (NCI-H226 lung): > 25 µM | GI50 (NCI-H23 lung): 19.6 µM
